Test results: EP3628659A1, “SELENOESTER-CONTAINING COMPOUNDS FOR USE IN THE TREATMENT OF MICROBIAL INFECTIONS OR COLORECTAL CANCER” (Consejo Superior De Investigaciones Científicas, priority 2018, dated 2020)

Assays:
[1] = tested on: Colo 320/MDR-LRP multidrug resistant overexpressing ABCB1 (MDR1)-LRP; assay: cells; type: cell-based, human; settings: for IC50: Homo sapiens, 24 h, read-out: Colo 320 Cytotoxicity; for SI (MRC-5/Colo320): quotient of IC50 in MRC-5 and IC50 in Colo-320
Method: Cytotoxicity assays in human colonic adenocarcinoma cell lines Colo 205 doxorubicin-sensitive (ATCC-CCL-222) and Colo 320/MDR-LRP multidrug resistant overexpressing ABCB1 (MDR1)-LRP (ATCC-CCL-220.1) were performed following the procedure described by Gajdács et al, 2017, Bioorg Med Chem Lett. 27(4): 797-802. The effects of increasing concentrations of selenium compounds on cell growth were tested in 96-well flat-bottomed microtiter plates. The selectivity of the action towards cancer cells was assessed through the evaluation of cytotoxic activity in a non-tumoral cell line, the MRC-5 human embryonal lung fibroblast cell lines (ATCC CCL-171), as described in Gajdács et al, 2017, Bioorg Med Chem Lett. 27(4): 797-802.
All cell lines were purchased from LGC Promochem, Teddington, UK. The colonic cells were cultured in RPMI 1640 medium supplemented with 10% heat-inactivated fetal bovine serum, 2 mM L-glutamine, 1 mM Na-pyruvate and 100 mM Hepes. The cell lines were incubated at 37°C, in a 5% CO2, 95% air atmosphere. The semi-adherent human colon cancer cells were detached with Trypsin-Versene (EDTA) solution for 5 min at 37°C. Alternatively, MRC-5 cells was cultured in Eagle's Minimal Essential Medium (EMEM, containing 4.5 g/L glucose) supplemented with a non-essential amino acid mixture, a selection of vitamins and 10% heat-inactivated fetal bovine serum. The cell lines were incubated at 37°C, in a 5% CO2, 95% air atmosphere.
The compounds were diluted in a volume of 100 µL of medium. The two-fold serial dilutions of selenocompounds were prepared in 100 µL of RPMI 1640, horizontally. The semi-adherent colonic adenocarcinoma cells were treated with Trypsin-Versene (EDTA) solution. They were adjusted to a density of 2×10^4 cells in 100 µL of RPMI 1640 medium, and were added to each well, with the exception of the medium control wells. The final volume of the wells containing selenocompounds and cells was 200 µL.
The culture plates were incubated at 37°C for 24 h; at the end of the incubation period, 20 µL of MTT (thiazolyl blue tetrazolium bromide, Sigma) solution (from a stock solution of 5 mg/mL) were added to each well. After incubation at 37°C for 4 h, 100 µL of sodium dodecyl sulfate (SDS) (Sigma) solution (10% in 0.01 M HCI) were added to each well and the plates were further incubated at 37°C overnight. Cell growth was determined by measuring the optical density (OD) at 540/630 nm with Multiscan EX ELISA reader (Thermo Labsystems, Cheshire, WA, USA). Inhibition of the cell growth was determined according to the formula below: […] = 100−[(OD sample−OD medium control)/(OD cell control−OD medium control)] × 100 [formula]
Results are expressed in terms of IC50, defined as the inhibitory dose that reduces the growth of the cells exposed to the tested compounds by 50%. Regarding the selectivity, the selectivity indexes (SI) were calculate, being SI the quotient of the IC50 in non-tumoral cells (MRC-5) and the respective cancer cell (Colo-205 or Colo-320). Compound is considered moderately selective when SI < 6 and ≥ 3; and strongly selective when SI ≥ 6.

ABCB1 efflux pump = target: T1, ABCB1 efflux pump (Homo sapiens, UniProt P08183); assay: Rhodamine 123 assay of inhibition of MDR efflux pumps (flow cytometry); type: cell-based; settings: Quotient = 100 × FARcompound/FARverapamil, verapamil 20 µM, Colo 320 vs Colo 205; for Inhibition of efflux pumps At 2 µM concentration: compound 2 µM; for Inhibition of efflux pumps At 20 µM concentration: compound 20 µM
T1 construct: The colonic adenocarcinoma cells (the doxorubicin-sensitive Colo 205 and the multidrug resistant Colo 320); host or cells: Colo 320/MDR-LRP (multidrug resistant), with Colo 205 (ATCC-CCL-222) as the sensitive parental comparator
Method: This method, described in Gajdács et al, 2017, Bioorg Med Chem Lett. 27(4): 797-802, is a fluorescence-based detection system which uses verapamil as reference inhibitor of the ABCB1 efflux pump. The colonic adenocarcinoma cells (the doxorubicin-sensitive Colo 205 and the multidrug resistant Colo 320) were adjusted to a density of 2×10^6/mL, re-suspended in serum-free RPMI 1640 medium and distributed in 0.5 mL aliquots into Eppendorf centrifuge tubes. Selenocompounds (1 and 10 µL from a stock solution of 1 mM, respectively) were added at different concentrations (2 µM and 20 µM final concentrations, respectively), and the samples were incubated for 10 min at room temperature. Next, 10 µL (5.2 µM final concentration) of rhodamine 123 was added to the samples and the cells were incubated for 20 minutes at 37°C, washed twice with phosphate buffered saline (PBS) and re-suspended in 1 mL PBS for analysis. The fluorescence intensity of the cell population was measured with a Partec CyFlow flow cytometer (Partec, Munster, Germany). Verapamil was used as a positive control at 20 µM final concentration in the rhodamine 123 exclusion experiments. The mean fluorescence intensity (%) was calculated for the treated multidrug resistance (MRD) Colo 320 and sensitive Colo 205 cell lines as compared to the untreated cells. The fluorescence activity ratio (FAR) was calculated based on the following equation which relates the measured fluorescence values: FAR = (MDRtreated /MDRcontrol)/(parentaltreated /parentalcontrol); Quotient = 100 × (FARcompound/FARverapamil) [formula]

Candida albicans = assay: Antifungal activity (optical density), Candida albicans; type: cell-based; settings: IC50 class, tested at 50, 100, 150 and 200 µM, OD 570 nm, 37 °C
Method: The compounds were tested for their antifungal and nematicidal properties against the fungi Candida albicans and Saccharomyces cerevisiae, and against the nematode Steinernema feltiae.
Fungal cell densities were determined by measuring the optical density (OD) at 570 nm at 0 h (first measurement immediately after incubation), 4 h, and 24 h after incubation at 37 °C; and using a Universal Microplate Reader, EL800, Biotech Instruments, Inc. Highland Park, Winooski, VT, USA. Compounds were dissolved in 1% DMSO and were tested at final concentrations of 50, 100, 150, and 200 µM. Nutrient Sabouraud Dextrose (SD), and Yeast Peptone Dextrose (YPD) were used as media for C. albicans, and S. cerevisiae, respectively. Ketoconazole was used as the positive control for C. albicans and S. cerevisiae. The growth culture with medium for each organism was used as the negative control. The Solvent 1% DMSO stock was used as a solvent control. All experiments were carried out in triplicate and on three different occasions (n = 9).
For the three organisms considered (C. albicans, S. cerevisiae and S. feltiae), the inhibitory concentration 50% (IC50) is defined as the concentration that inhibits the viability of the respective organism to a 50% of the viability determined for the negative control.

T1 sequence (P08183 whole entry): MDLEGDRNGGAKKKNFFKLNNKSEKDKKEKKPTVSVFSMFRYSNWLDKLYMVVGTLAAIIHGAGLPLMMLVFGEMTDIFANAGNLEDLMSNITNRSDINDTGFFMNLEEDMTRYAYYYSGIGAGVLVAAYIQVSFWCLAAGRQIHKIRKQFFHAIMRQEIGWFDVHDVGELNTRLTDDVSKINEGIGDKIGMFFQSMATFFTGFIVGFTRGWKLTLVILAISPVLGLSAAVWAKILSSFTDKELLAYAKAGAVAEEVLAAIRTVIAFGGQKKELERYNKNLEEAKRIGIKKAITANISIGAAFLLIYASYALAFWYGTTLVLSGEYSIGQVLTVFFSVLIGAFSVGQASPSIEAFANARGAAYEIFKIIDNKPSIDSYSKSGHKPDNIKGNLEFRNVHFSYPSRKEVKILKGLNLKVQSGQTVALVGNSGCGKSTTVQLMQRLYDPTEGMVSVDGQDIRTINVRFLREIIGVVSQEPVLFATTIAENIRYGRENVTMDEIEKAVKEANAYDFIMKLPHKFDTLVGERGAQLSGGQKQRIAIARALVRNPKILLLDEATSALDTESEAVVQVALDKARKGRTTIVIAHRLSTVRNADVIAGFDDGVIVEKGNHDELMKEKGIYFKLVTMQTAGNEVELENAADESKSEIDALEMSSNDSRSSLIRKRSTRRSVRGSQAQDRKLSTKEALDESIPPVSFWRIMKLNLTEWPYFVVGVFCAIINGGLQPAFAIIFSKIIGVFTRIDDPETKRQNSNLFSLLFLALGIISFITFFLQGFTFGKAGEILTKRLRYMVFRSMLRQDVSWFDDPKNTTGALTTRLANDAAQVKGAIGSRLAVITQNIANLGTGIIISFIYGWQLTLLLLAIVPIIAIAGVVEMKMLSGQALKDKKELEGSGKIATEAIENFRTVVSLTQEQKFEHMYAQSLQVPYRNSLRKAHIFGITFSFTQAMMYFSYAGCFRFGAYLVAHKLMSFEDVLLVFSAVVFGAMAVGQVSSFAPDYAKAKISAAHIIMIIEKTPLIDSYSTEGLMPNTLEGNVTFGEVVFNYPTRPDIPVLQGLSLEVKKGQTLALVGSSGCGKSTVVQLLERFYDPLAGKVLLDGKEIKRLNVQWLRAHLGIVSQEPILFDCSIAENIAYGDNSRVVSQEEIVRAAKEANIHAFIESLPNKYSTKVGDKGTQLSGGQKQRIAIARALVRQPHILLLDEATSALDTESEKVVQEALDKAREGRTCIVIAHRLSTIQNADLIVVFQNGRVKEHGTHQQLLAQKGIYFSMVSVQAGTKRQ

SMILES	IC50 [1] [µM]	SI (MRC-5/Colo320) [1]	Inhibition of efflux pumps At 2 µM concentration (ABCB1 efflux pump)	Inhibition of efflux pumps At 20 µM concentration (ABCB1 efflux pump)	IC50 (Candida albicans) [µM]
N#CC[Se]C(=O)c1ccc(C(=O)[Se]CC#N)cc1 [Compound 18, Se,Se-bis-(cyanomethyl) benzene-1,4-bis-(carboselenoate)]	1 to 10	*** (Strongly selective compounds: SI ≥ 6)	** (Potent inhibitors of MDR efflux pumps: 100% ≤ Quotient < 200% (from 1- to 2-fold more potent than reference verapamil))	** (Potent inhibitors of MDR efflux pumps: 100% ≤ Quotient < 200% (from 1- to 2-fold more potent than reference verapamil))	50 to 100
N#CC[Se]C(=O)c1cccc(C(=O)[Se]CC#N)c1 [Compound 19, Se,Se-bis-(cyanomethyl)benzene-1,3-bis-(carboselenoate)]	1 to 10	*** (Strongly selective compounds: SI ≥ 6)	** (Potent inhibitors of MDR efflux pumps: 100% ≤ Quotient < 200% (from 1- to 2-fold more potent than reference verapamil))	** (Potent inhibitors of MDR efflux pumps: 100% ≤ Quotient < 200% (from 1- to 2-fold more potent than reference verapamil))	10 to 50
N#CC[Se]C(=O)c1cc(C(=O)[Se]CC#N)cc(C(=O)[Se]CC#N)c1 [Compound 20, Se,Se,Se-tris-(cyanomethyl) benzene-1,3,5-tris-(carboxyselenoate)]	1 to 10	*** (Strongly selective compounds: SI ≥ 6)	** (Potent inhibitors of MDR efflux pumps: 100% ≤ Quotient < 200% (from 1- to 2-fold more potent than reference verapamil))	** (Potent inhibitors of MDR efflux pumps: 100% ≤ Quotient < 200% (from 1- to 2-fold more potent than reference verapamil))	10 to 50
CC(=O)C[Se]C(=O)c1ccc(C(=O)[Se]CC(C)=O)cc1 [Compound 22, Se,Se-bis-(2-oxopropyl) benzene-1,4-bis-(carboselenoate)]	< 1	* (Slightly selective compounds: 1 ≤ SI < 3)	*** (Very potent inhibitors of MDR efflux pumps: Quotient ≥ 200% (≥ 2-fold more potent than reference verapamil))	*** (Very potent inhibitors of MDR efflux pumps: Quotient ≥ 200% (≥ 2-fold more potent than reference verapamil))	10 to 50
CC(=O)C[Se]C(=O)c1cccc(C(=O)[Se]CC(C)=O)c1 [Compound 23, Se,Se-bis-(2-oxopropyl) benzene-1,3-bis-(carboselenoate)]	< 1	* (Slightly selective compounds: 1 ≤ SI < 3)	*** (Very potent inhibitors of MDR efflux pumps: Quotient ≥ 200% (≥ 2-fold more potent than reference verapamil))	*** (Very potent inhibitors of MDR efflux pumps: Quotient ≥ 200% (≥ 2-fold more potent than reference verapamil))	10 to 50
CC(=O)C[Se]C(=O)c1cc(C(=O)[Se]CC(C)=O)cc(C(=O)[Se]CC(C)=O)c1 [Compound 24, Se,Se,Se-tris-(2-oxopropyl) benzene-1,3,5-tris-(carboxyselenoate)]	< 1	* (Slightly selective compounds: 1 ≤ SI < 3)	*** (Very potent inhibitors of MDR efflux pumps: Quotient ≥ 200% (≥ 2-fold more potent than reference verapamil))	*** (Very potent inhibitors of MDR efflux pumps: Quotient ≥ 200% (≥ 2-fold more potent than reference verapamil))	> 100
